Measurements taken from ChEMBL document CHEMBL1129515, “Synthesis and biological evaluation of1',2'-seconucleo-5'- phosphonates” (1996).

What was measured:
Pichinde virus = assay: Inhibitory activity of compound against pichinde virus (PIC) was evaluated in vitro; Inactive; format: functional
[1] = test system: Human immunodeficiency virus; assay: Inhibitory activity of compound against human immunodeficiency virus (HIV) was evaluated in vitro; Inactive; format: functional, Human immunodeficiency virus 1
Yellow fever virus = assay: Inhibitory activity of compound against Yellow fever virus (YF) was evaluated in vitro; Inactive; format: functional
[2] = test system: Venezuelan equine encephalitis virus; assay: Inhibitory activity of compound against Venezuelan equine encephalomyelitis virus (VEE) was evaluated in vitro; Inactive; format: functional
[3] = test system: Vesicular stomatitis virus; assay: Inhibitory activity of compound against Vesicular stomatitis virus (VSV) was evaluated in vitro; Inactive; format: functional
Rift Valley fever virus = assay: (§1) Inhibitory activity of compound against […] was evaluated in vitro; Inactive; format: functional
[4] = test system: Sandfly fever Sicilian virus; assay: as §1; format: functional
unidentified adenovirus = assay: Inhibitory activity of compound against Adenovirus type 2 (AD2) was evaluated in vitro; Inactive; format: functional
[5] = test system: Japanese encephalitis virus; assay: Inhibitory activity of compound against japanese encephalitis virus (JBE) was evaluated in vitro; Inactive; format: functional
Punta Toro virus = assay: Inhibitory activity of compound against punto toro virus (PT) was evaluated in vitro; Inactive; format: functional

Measured: Dose

CCOP(=O)(C[C@H](O)[C@H](C)OCc1ccccc1)OCC
320 µg/mL: all assays above

CCOP(=O)(O)CC(OCn1ccc(=O)[nH]c1=O)C(C)O (stereo not given)
320 µg/mL: all assays above

Cc1cn(COC(CP(=O)(O)O)C(O)CO)c(=O)[nH]c1=O (stereo not given)
320 µg/mL: all assays above

Cc1cn(COC2CP(=O)(Oc3ccccc3)OC2C)c(=O)[nH]c1=O (stereo not given)
320 µg/mL: all assays above

CCOP(=O)(O)CC(OCn1cc(C)c(=O)[nH]c1=O)C(C)O (stereo not given)
320 µg/mL: all assays above

CCOP(=O)(C[C@H](O)[C@H](COCc1ccccc1)OCc1ccccc1)OCC
320 µg/mL: all assays above

Cc1cn(COC(CP(=O)(O)O)C(C)O)c(=O)[nH]c1=O (stereo not given)
320 µg/mL: all assays above

CC(O)C(CP(=O)(O)O)OCn1ccc(=O)[nH]c1=O (stereo not given)
320 µg/mL: all assays above

CC(O)C(CP(=O)(O)O)OCn1ccc(N)nc1=O (stereo not given)
320 µg/mL: all assays above
